Measurements reported in publication PMC9332833 (Cancers, 2022).

How the values were obtained:
K562 cells [1] = assay: MTT viability test, K562; type: cell-based; details: Homo sapiens, K562; MTT, 48 h
Experimental: CML cell line K562 CCL-243™ (BCR-ABL^+) was purchased from the ATCC® (Manassas, VA, USA). Cells were grown in RPMI 1640 medium containing HEPES (Biowest, Nuaillé, France) with 2 mM GlutaMAX (Gibco, Grand Island, NY, USA), supplemented with 10% fetal bovine serum (Sigma-Aldrich, St. Louis, MO, USA) and […] (Gibco, Grand Island, NY, USA) and 0.1 µM Vincristine (for K562-MDR1).
(§1) Cells were seeded in 96-well plates; after 24 h, medium with the appropriate drug concentration was added to each well. After 48 h, Tetrazolium Bromide (Sigma-Aldrich, St. Louis, MO, USA) was added to each well for 2–3 h. After that, cells were lysed and formazan crystals were dissolved. Absorbance was read using an iMark Microplate absorbance reader (Bio-Rad, Hercules, CA, USA). Results were calculated relative to cells treated with DMSO only. […]
(§2) Cells were seeded in 96-well plates at 7 × 10^3 cells/well in 50 µL of complete medium (for K562 or K562-MDR1) or at 50 × 10^3 cells/well in 50 µL of complete medium (CD34+ cells). After 24 hours, 50 µL of medium with the appropriate drug concentration was added to each well. The final DMSO concentration per well was 1% for K562 and K562-MDR1 and 0.1% for CD34+ cells. After 48 hours, 20 µL of Tetrazolium Bromide (Sigma-Aldrich, St. Louis, MO, USA) at a concentration of 5 mg/mL was added to each well. Cells were incubated for 2-3 hours in a cell culture incubator, and then 10% SDS with 1% HCl was added to each well to lyse the cells and dissolve the formazan crystals. Plates were […]

K562-MDR1 cells = assay: MTT viability test, K562-MDR1; type: cell-based, human; details: Homo sapiens; MTT, 48 h
Description: The K562-MDR1 cell line was developed using increasing concentrations of the commonly used antimitotic drug vincristine on a polyclonal K562 population, as described earlier. […] The DMSO concentration in the culture was 0.1%. The vincristine dose was doubled every 2–3 weeks (at least twice for each experiment) after the cells reached confluence. Cell’s viability was above 90%, as confirmed by Muse Cell Analyzer (Merck Millipore, Burlington, MA, USA). The final concentration of vincristine reached was 0.1 μM. The increase in the K562-MDR1 population was confirmed by flow cytometry and PCR.
as §1, §2

K562 cells [2] = assay: Annexin V-FITC/PI apoptosis measurement, K562; type: cell-based, human; details: 5 µM, 24 h
Experimental: Cells were seeded in 6-well plates (K562 or K562-MDR1) or in 24-well plates (CD34^+ cells). After 24 h, BK124.1 or DMSO was added. After a further 24 h, cells were stained using the Annexin V-FITC kit for the detection of apoptosis (BD, Franklin Lakes, NJ, USA) and immediately analyzed on a BD FACSCalibur using CellQuest software (BD, Franklin Lakes, NJ, USA). […]
incubated overnight at 37 °C and analyzed using an iMark Microp late absorbance reader (Bio-Rad, Hercules, CA, USA). Results were calculated relative to control cells treated with DMSO only.
[…] CD34+ cells were plated at a concentration of 2.5 × 10^5 cells/mL in a 24-well plate. […] A f t e r a further 24 hours, cells were harvested and stained according to the manufacturer's protocol using the Annexin V-FITC kit for the detection of apoptosis (BD, Franklin Lakes, NJ, USA). Stained cells were immediately analyzed on a BD FACSCalibur using CellQuest softwa re (BD, Franklin Lakes, NJ, USA).
Cells were seeded at a concentration of 1-2 × 10^5 cells/mL in a 6-well plate. After 24 hours of pre-incubation, BK124.1 in DMSO was added to the cells (vDMSO/vmedium), and incubated for 24 or 48 hours.
After incubation, cells were washed twice with ice-cold PBS (Mg2+ and Ca2+-free), resuspended in ice-cold 70% ethanol, and placed at -20 °C for 24 hours. […]
Flow cytometry analysis of CD243 (P-glycoprotein) […]

K562 cells [3] = assay: Immunoblotting of CML signaling proteins; type: cell-based, human; details: 5 µM
Experimental: K562 cells were plated at a concentration of 1–2 × 10^5 cells/mL in a 6-well plate. After 24 h of pre-incubation, BK124.1 or DMSO was added and cells were incubated for a specified time, after which cells were lysed with RIPA buffer (Sigma-Aldrich, St. Louis, MO, USA) and supplemented with c0mplete Protease Inhibitor (Roche, Basel, Switzerland) and PhosSTOP (Roche, Basel, Switzerland). Protein concentration was measured using Pierce BCA Protein Assay Kit (Thermo Fisher Scientific, Waltham, MA, USA) and adjusted to contain equal amount of protein (20 µg) in equal volume. Protein lysates were separated by SDS-PAGE electrophoresis (TGX StainFree, Bio-Rad, Hercules, CA, USA) and transferred onto the PVDF membranes (AppliChem GmbH ITW Reagents, Darmstadt, Germany). Membranes were blocked with 5% non-fat powdered milk, then incubated with primary antibodies overnight at 4 °C followed by HRP-conjugated antibodies (Supplementary Methods). Blots were developed using Clarity Western ECL Substrate and analyzed with ChemiDoc XRS+ (Bio-Rad, Hercules, CA, USA). Protein levels normalized to controls were determined using ImageJ software.
K562 cells were plated at a concentration of 1.5 × 10^5 cells/mL in a 6-well plate. After 24 h pre-incubation, BK124.1 in DMSO was added and incubated for the specified time. Next, cytosolic and nuclear cell fractions were separated as described. […]

## CCC12C(=O)C(CC)(C(c3ccccc3)=C1c1ccccc1)C1C(=O)N(CC(O)CNC(C)C)C(=O)C12 (centres unmarked) [BK124.1, 4-[2-hydroxy-3-(propan-2-ylamino)propyl]-1,7-diethyl-8,9-diphenyl-4-azatricyclo [5.2.1.02,6]dec-8-ene-3,5,10-trione]
K562 cells [1]
  IC50: 2.5 µM
K562-MDR1 cells
  IC50: 2.16 µM
K562 cells [2]
  Apoptosis: 61.2%
K562 cells [3]; first changes after 4 and 8 h
  Level of BCR-ABL1, STAT5, AKT, mTOR and NF-κB proteins: decrease in the level
K562 cells [3]; from 4 h, maximum after 8 h, mainly nuclear fraction
  Level of FOXO3A and p21waf1/cip1 proteins: increase in the level
